One may read the IC50 as the concentration needed to halve the response being measured. A word on the Ki: it is a measure of affinity in units of concentration, obtained from inhibition or displacement.

The values that follow come from article PMC5464344, “Analgesic and anti‐inflammatory properties of novel, selective, and potent EP4 receptor antagonists” (Pharmacology Research & Perspectives, 2017).

In one experiment the test system is dogs with osteoarthritis. More on the design: method as in Rausch‐Derra et al. 2016. The note with it: prospective placebo controlled study, ref Rausch‐Derra et al. 2016; cited from earlier work.
The next experiment concerns the target T1, Rat EP4 (Rattus norvegicus, UniProt P43114).
T1 construct: expressed in transfected cells
Put plainly: EP4 cAMP antagonist assay (HTRF), rat EP4. It is filed as cell-based. The note with it: read-out: cAMP Antagonism Rat EP4 IC50. Here is the method:
(§1) Human EP4 (GenBank Accession # AY429109, Clone ID PER0400000, UMR cDNA Resource Center, Rolla, MO) was stably expressed in HEK293 cells. Rat EP4 cDNA (GenBank Accession# NM_03276) was cloned into pcDNA 3.1 vector and stably transfected into HEK293 cells. The cell lines were maintained in DMEM (invitrogen) supplemented with 10% fetal bovine serum (FBS), 1 mmol/L sodium pyruvate, 10 mmol/L HEPES, 500 μg/mL geneticin and 2 mmol/L L‐glutamine. Confluent cultures were grown at 37°C in an atmosphere containing 5% CO2. Cells were harvested using 0.25% Trypsin‐ EDTA, suspended in freeze media at a density of 10^7cel1s/mL, and aliquots were stored in liquid nitrogen. Immediately prior to the assay, cells were thawed with DMEM and suspended in cAMP assay buffer (HBSS with 0.1% BSA, 20 mmol/L HEPES and 200 μmol/L IBMX).
CJ‐023,423 served as the positive control. To measure the cAMP levels, cAMP‐d2 conjugate and anti cAMP‐cryptate conjugate in lysis buffer were incubated with the treated cells at room temperature for 1 h. The HTRF signal was detected using an EnVision plate reader (Perkin‐Elmer, Inc., Waltham, MA, USA.) to calculate the ratio of fluorescence at 665 to 620 nm. The raw data were converted to cAMP (nmol/L) using a cAMP standard curve generated for each experiment. Data were analyzed using a 4‐parameter nonlinear logistic equation. Results are expressed as the geometric mean ± standard deviation or geometric mean ± standard error as noted.
In general terms: TR-FRET usually uses a lanthanide donor and a delayed reading to cut background.

Experiment [1] deals with T2, Human EP4 (Homo sapiens, UniProt P35408). Put plainly: [3H]-PGE2 receptor binding assay, EP4 membranes. More on the design: expressed in transfected cells; membrane preparation. The following applies: HEK293 membranes, geometric mean ± SEM, read-out: hEP1-4 receptor binding EP4 Ki. Here is the method: (§2) Receptor binding assays were done using membrane preparations of HEK 293 cells transfected with various prostanoid receptors using previously published procedure (Nakao et al. 2007). EP1 and EP4 membranes were prepared from recombinant HEK293 cells stably expressing human EPl receptor (GenBank Accession # AY275470, Clone ID PER0100000, UMR cDNA Resource Center, Rolla, MO) or human EP4 receptor. EP2 and EP3 membranes were prepared from HEK293 cells transiently transfected with human EP2 receptor (GenBank Accession # AY275471, Clone ID PER0200000, UMR cDNA Resource Center, Rolla, MO) or human EP3 receptor (GenBank Accession # AY429108, Clone ID PER3VI0000, UMR cDNA Resource Center, Rolla, MO) plasmids. Frozen cell pellets were homogenized in homogenization buffer (10 mmol/L Tris‐HCl, pH7.4, 250 mmol/L sucrose, 1 mmol/L EDTA, 0.3 mmol/L indomethacin and protease inhibitor cocktail with EDTA (Roche Molecular Biochemicals, catalog # 1691498)) using a Teflon/glass homogenizer. After a low speed centrifugation (200g for 15 min at 4°C) the supernatant was subjected to high speed centrifugation (30,000g for 60 min at 4°C). Membrane protein preparation was aliquoted and quick frozen on dry ice prior to storage at −80°C. […] Compounds were tested in a 96‐well format using a three‐fold dilution series to generate 10‐point curves. […] The binding reaction was performed in 200 μL MES buffer (10 mmol/L MES, pH 6.0, 10 mmol/L MgCl2, and l mmol/L EDTA) using polystyrene 96‐well plates. […] The membranes were harvested by filtration (TomTek harvester), washed four times with cold buffer (10 mmol/L MES, pH 6.0, 10 mmol/L MgCl2), dried in a 60°C oven, and the radioactivity was quantified as counts per min (CPM) using a TopCount detector. […] Data were analyzed using a 4‐parameter nonlinear logistic equation. K i Conversion from IC50 Values (K i = […] where [L] is the ligand concentration). Results are expressed as the geometric mean ± standard deviation or geometric mean ± standard error as noted.
T2 sequence (P35408 whole entry): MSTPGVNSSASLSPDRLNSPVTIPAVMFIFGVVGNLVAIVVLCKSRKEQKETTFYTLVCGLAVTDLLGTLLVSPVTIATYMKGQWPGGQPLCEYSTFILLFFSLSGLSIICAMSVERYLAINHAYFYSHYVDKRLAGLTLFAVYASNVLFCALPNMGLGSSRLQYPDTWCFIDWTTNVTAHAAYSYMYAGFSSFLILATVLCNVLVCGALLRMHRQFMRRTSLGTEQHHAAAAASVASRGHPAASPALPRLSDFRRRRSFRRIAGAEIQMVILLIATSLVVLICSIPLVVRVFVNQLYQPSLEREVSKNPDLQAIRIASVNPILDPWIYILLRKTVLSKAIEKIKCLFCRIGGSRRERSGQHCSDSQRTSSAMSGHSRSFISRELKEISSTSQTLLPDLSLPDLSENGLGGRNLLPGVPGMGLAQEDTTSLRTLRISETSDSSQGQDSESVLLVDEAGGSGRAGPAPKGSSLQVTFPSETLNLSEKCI

Another experiment deals with T3, human EP1 receptor (Homo sapiens, UniProt P34995).
T3 construct: membrane preparation
T3 sequence (P34995 1-402): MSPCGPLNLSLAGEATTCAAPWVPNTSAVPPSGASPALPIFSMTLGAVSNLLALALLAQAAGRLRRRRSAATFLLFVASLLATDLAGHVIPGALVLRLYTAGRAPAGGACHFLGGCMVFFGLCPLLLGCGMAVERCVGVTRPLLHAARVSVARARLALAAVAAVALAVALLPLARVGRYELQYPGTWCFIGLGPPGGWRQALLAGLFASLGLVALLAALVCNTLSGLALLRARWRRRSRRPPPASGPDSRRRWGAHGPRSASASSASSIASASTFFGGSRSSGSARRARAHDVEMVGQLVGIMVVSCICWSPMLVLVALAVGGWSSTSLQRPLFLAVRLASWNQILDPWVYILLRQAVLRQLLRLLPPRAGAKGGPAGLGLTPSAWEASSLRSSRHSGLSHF
Briefly: [3H]-PGE2 receptor binding assay, EP1 membranes. Here is the method: as §2

A further experiment addresses T4, human EP2 receptor (Homo sapiens, UniProt P43116).
T4 construct: host or cells: HEK293, transient; membrane preparation
Briefly: [3H]-PGE2 receptor binding assay, EP2 membranes. The following applies: HEK293 membranes; [3H]-PGE2; geometric mean ± SEM; read-out: hEP1-4 receptor binding EP2 Ki. On the procedure:
as §2

For a further experiment, the target named is T5, human EP3 receptor (Homo sapiens, UniProt P43115).
T5 sequence (P43115 1-359 limits assumed): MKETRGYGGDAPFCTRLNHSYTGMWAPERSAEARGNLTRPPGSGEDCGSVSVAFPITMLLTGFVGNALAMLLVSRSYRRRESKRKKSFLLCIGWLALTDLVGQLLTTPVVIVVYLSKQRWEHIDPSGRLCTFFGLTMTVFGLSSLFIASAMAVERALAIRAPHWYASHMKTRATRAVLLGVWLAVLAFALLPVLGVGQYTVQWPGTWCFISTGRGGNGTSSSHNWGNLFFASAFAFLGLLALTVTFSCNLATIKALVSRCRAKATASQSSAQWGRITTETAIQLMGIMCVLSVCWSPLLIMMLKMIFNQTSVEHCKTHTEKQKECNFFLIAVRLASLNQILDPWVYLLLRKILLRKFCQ
Briefly: [3H]-PGE2 receptor binding assay, EP3 membranes. The following applies: HEK293 membranes, geometric mean ± SEM, read-out: hEP1-4 receptor binding EP3 Ki. Here is the method:
as §2

Experiment [2] deals with T2, Human EP4. Put plainly: EP4 cAMP antagonist assay (HTRF), human EP4. The note with it: HEK293 cells stably expressing human EP4; PGE2 at EC80; geometric mean ± SEM; read-out: cAMP Antagonism (hEP4) Human EP4 IC50. The experiment is classed as cell-based. On the procedure:
as §1, with “Cells were harvested using 0.25% Trypsin‐ EDTA, suspended in freeze media at a density of 10^7cel1s/mL, and aliquots were stored in liquid nitrogen.” left out
(§3) To measure the cAMP levels, cAMP‐d2 conjugate and anti cAMP‐cryptate conjugate in lysis buffer were incubated with the treated cells at room temperature for 1 h. […] The raw data were converted to cAMP (nmol/L) using a cAMP standard curve generated for each experiment. Data were analyzed using a 4‐parameter nonlinear logistic equation. Results are expressed as the geometric mean ± standard deviation or geometric mean ± standard error as noted.

For experiment [3], the target named is T2, Human EP4. Put plainly: PGE2 stimulated cAMP production by HEK293/EP4 cell line. The experiment is classed as cell-based. Here is the method: as §1, with “Cells were harvested using 0.25% Trypsin‐ EDTA, suspended in freeze media at a density of 10^7cel1s/mL, and aliquots were stored in liquid nitrogen.” left out
as §3

Experiment [4] relates to female Lewis rats, collagen induced arthritis. Briefly: Type-II CIA model of inflammation and autoimmunity. The experiment is classed as in vivo. The note with it: rat CIA. On the procedure:
(§4) For the monoiodoacetate (MIA) and adjuvant induced arthritis (AIA) studies, male Lewis rats (Envigo, Indianapolis, IN) of approximately 8 weeks of age at the time of disease induction were used. For collagen induced arthritis studies (CIA) female Lewis rats (Charles River) weighing 150–170 g were used. Rats were housed in groups of 2 or 3 per cage and maintained in a constant temperature, and on a 12 h light/12 h dark cycle. Animals had free access to food and water at all times except during data collection.
On day 1 of the study ankle widths are measured across the joint (left side to right side) at the thickest point with calipers and rats immunized intradermally near the base of the tail with 0.4 mL of 1 mg/mL type II collagen (Elastin Products) emulsified with incomplete Freund's adjuvant (Sigma Aldrich). A second booster injection booster of 0.4 mL of the collagen emulsion was given on day 8 of the study. Ankle widths were measured on day 8 before the collagen injection and every 2–3 days thereafter until study end. On day 11 rats were randomized into five groups of eight animals based on inflammation (redness and/or swelling) in their hind paws and body weight. Rats were then dosed with vehicle (10% Acacia plus 0.05% antifoam) and compound 3 at doses of 3, 10, and 30 mg/kg. Prednisolone was included at a dose of 10 mg/kg as a positive control. Dosing was by oral gavage once daily for seventeen days at a dose volume of 5 mL/kg. On day 28 rats were euthanized and hind paws and knee joints collected for histology. Ankles and knees were fixed in neutral buffered formalin, decalcified, embedded in paraffin, and sectioned according to standard histological methodology and the joints were then scored by a pathologist using published scoring criteria (Bendele 2001; Levine et al. 2014).

Experiment [5] concerns male Lewis rats, adjuvant induced arthritis. Put plainly: AIA model of inflammation (paw swelling). The experiment is classed as in vivo. The note with it: rat AIA; 10 mg/kg oral once daily 4 days; P < 0.05 by Dunnett's test. Here is the method:
as §4
On Day 0, paw widths of both right and left paws were measured between the lateral and dorsal surfaces using calipers, and a mean paw thickness for each rat was calculated by averaging these measurements. Rats were then inoculated intradermally with 0.25 mg of adjuvant (M. Tuberculosis H37 RA from Difco) in 100 μL of mineral oil at the base of the tail to induce adjuvant disease. Eleven days post inoculation paw widths of both right and left paws were measured again, and the percent change from the Day 0 reading was calculated. […] On the fifth day after dosing started (day 15 post adjuvant injection) the rats were euthanized without further dosing and paw width measured again. The percent increase in mean paw thickness from day 11 to day 15 was then calculated as a measure of paw swelling which is indicative of the amount of inflammation in the paws measured. […]

Setting [6] is: 10 mg/kg oral once daily for seventeen days.

Several values for one entry are separate records, joined by “and”; a condition that tells them apart may be missing. Equal entries are not always repeated.

T4 sequence (P43116 whole entry): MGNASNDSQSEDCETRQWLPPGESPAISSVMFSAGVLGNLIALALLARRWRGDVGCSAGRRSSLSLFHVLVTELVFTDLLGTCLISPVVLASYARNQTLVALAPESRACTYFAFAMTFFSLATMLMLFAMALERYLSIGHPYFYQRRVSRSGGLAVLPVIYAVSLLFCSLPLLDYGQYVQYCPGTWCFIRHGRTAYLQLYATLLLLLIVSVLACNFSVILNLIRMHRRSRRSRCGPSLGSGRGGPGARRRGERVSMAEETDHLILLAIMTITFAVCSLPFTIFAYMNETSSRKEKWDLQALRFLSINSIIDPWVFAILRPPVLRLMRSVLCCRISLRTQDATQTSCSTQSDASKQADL
T1 sequence (P43114 whole entry): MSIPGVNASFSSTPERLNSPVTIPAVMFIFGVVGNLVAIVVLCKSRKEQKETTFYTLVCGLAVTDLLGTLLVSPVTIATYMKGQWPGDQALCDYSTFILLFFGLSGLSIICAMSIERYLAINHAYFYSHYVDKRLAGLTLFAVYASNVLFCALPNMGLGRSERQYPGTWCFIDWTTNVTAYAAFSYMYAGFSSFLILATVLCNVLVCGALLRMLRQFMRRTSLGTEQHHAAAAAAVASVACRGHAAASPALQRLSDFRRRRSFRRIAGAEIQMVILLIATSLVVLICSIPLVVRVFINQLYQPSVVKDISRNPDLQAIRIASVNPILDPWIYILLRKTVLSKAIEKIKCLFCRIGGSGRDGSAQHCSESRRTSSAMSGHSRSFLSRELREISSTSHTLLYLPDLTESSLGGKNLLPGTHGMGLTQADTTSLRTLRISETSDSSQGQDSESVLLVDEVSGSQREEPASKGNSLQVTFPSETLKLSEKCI

Regarding `CCc1nc2c(C)nc(C)cc2n1-c1ccc(CCNC(=O)NS(=O)(=O)c2ccc(C)cc2)cc1` [CJ‐023,423, N‐[({2‐[4‐(2‐ethyl‐4, 6‐dimethyl‐1H‐imidazo [4, 5–c]pyridin‐1‐yl)phenyl]ethyl}amino)carbonyl]‐4‐methylbenzenesulfonamide, reference compound], in the experiment with dogs with osteoarthritis, the “efficacy for signs and symptoms of OA” value is recorded as “efficacious”. Further, the IC50 is 13.1 ± 1 nM at Rat EP4; 12 nM and 11.7 nM at Human EP4 [2]. In addition, the Ki at Human EP4 [1] was 449 ± 123 nM; on human EP1 receptor (HEK293 membranes, [3H]-PGE2, geometric mean ± SEM, read-out: hEP1-4 receptor binding EP1 Ki) it was greater than 22900 nM; on human EP2 receptor it was greater than 21600 nM; at human EP3 receptor it was greater than 19500 nM.

As to `CCCCC[C@H](O)/C=C/[C@H]1[C@H](O)CC(=O)[C@@H]1C/C=C\CCCC(=O)O` [PGE2, Prostaglandin (PG) E2], the “EC80 cAMP production” value on Human EP4 [3] (HEK 293 cells stably transfected with human EP4 cDNA, 20 min) turned out to be 0.34 nM. At Human EP4 [3] (HEK‐293 cells stably transfected with human EP4 cDNA, 20 min at room temperature), the “EC80 cAMP production (Fig. 2A)” value was determined as 0.34 nM.

Consider `C[C@]12C=CC(=O)C=C1CC[C@@H]1[C@@H]2[C@@H](O)C[C@@]2(C)[C@H]1CC[C@]2(O)C(=O)CO` [prednisolone, Prednisolone], for which, in experiment [4] (setting [6]), the “reduction in summed scores (ankle histology)” value came out at 93% and the “reductions in all ankle scores (histology)” value is 87–99%. Also, the ankle thickness entry in experiment [4] (10 mg/kg oral once daily, data not shown) is reported as “significant reduction”. Besides, the “knee joint histopathology (representative photomicrograph)” value in experiment [4] (Fig. 10 bottom panel, prednisolone 10 mg/kg, compound 3 dose not given) was “very minimal inflammation (S) and cartilage damage not visible at this magnification”. The “ankle joint histopathology (representative photomicrograph)” value in experiment [4] (Fig. 10 top panel, prednisolone 10 mg/kg, compound 3 dose not given) is “minimal inflammation (S) and minimal cartilage damage”.

Consider `O=C(O)Cc1ccccc1Nc1c(Cl)cccc1Cl` [diclofenac, reference compound], for which, in experiment [5], the “increases in paw inflammation (swelling) compared to vehicle” value is given as “significantly inhibited”.

In the case of `CCCCC[C@H](O)/C=C/[C@H]1[C@H](O)CC(=O)[C@@H]1C/C=C\CCCC(=O)O` [^3[H] PGE2], the Kd at human EP1 receptor (read-out: ^3[H] PGE2 Binding/kd EP1, HEK 293 membranes, homologous competition (Fig. 3D)) came out at 5.62 nM.
